According to patent US12187713B2, “Immunomodulators, compositions and methods thereof” (Betta Pharmaceuticals Co., Ltd, priority 2019, dated 2025):

Assays:
PD-1/PD-L1 = PD-1/PD-L1 (Homo sapiens (Human), UniProt Q9NZQ7); assay: PD-1/PD-L1 Binding Assay (Alphascreen)
Outline: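 PD-1/PD-L1 binding detected by anti-6×His acceptor and streptavidin donor beads after 120 min in the dark at 25 °C. Beforehand, the two proteins were incubated 15 min at 25 °C with inhibitor at 0.015–300 nM (1% DMSO). IC50 comes from a log concentration–response curve.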

[1] = Pharmacokinetic Assay, single oral dose 100 mg/kg (Table 11); format: in vivo; settings: mouse, C57 female mice, oral (intragastric), plasma
Protocol: Adult C57 female mice were received to single-dose of the test compounds with […], 10% Kolliphor^@HS 15 and 80% saline as excipients, the mice (n=9) were giving oral administration (intragastric administration) with the compounds at a dose of 100 mg/kg. Time of blood collection: 15 min, 30 min, 1 h, 2 h, 4 h, 7 h, 24 h. Approximately 0.1 mL of whole blood was collected from retro-orbital venous plexus of 3 mice at each time point, and placed into tubes that contained K2-EDTA as an anticoagulant. The whole blood was centrifuged at 4° C. and 4000 rpm for 10 min. The plasma was transferred into centrifuge tubes, and stored at −20° C. until being analyzed. Concentrations of test compounds in the plasma samples were analyzed with liquid chromatography-tandem mass spectrometry (LC-MS/MS). Plasma concentration-time data of individual animals was analyzed using Microsoft Excel 2010. Non-compartmental model was introduced in concentration analysis. The pharmacokinetic parameters of the test compounds were calculated using WinNonlin (version 4.1; Pharsight) software.

[2] = Pharmacokinetic Assay, single oral dose 5 mg/kg (Table 12); format: in vivo; settings: mouse, plasma concentration, C57 female mice, single oral dose 5 mg/kg
Outline: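 Adult female C57 mice (n=3) got one intragastric dose of 5 mg/kg in 15% DMSO, 10% Kolliphor HS 15, 75% saline. Retro-orbital blood was taken at 30 min, 2 h and 4 h into K2-EDTA. Plasma levels were measured by LC-MS/MS.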

[3] = system: PD-1/PD-L1 interaction (Jurkat T cells expressing hPD-1 and PD-L1 aAPC/CHO-K1 cells expressing hPD-L1); assay: NFAT Assay (PD-1/PD-L1 Blockade Bioassay, luciferase reporter); format: cell-based; settings: Homo sapiens; PD-1 effector Jurkat cells + PD-L1 aAPC/CHO-K1 cells, Bio-Glo luciferase
Protocol: PD-1/PD-L1 Blockade Bioassay contains two cells: PD-1 Effector Cells, which are the Jurkat T cells expressing hPD-1 and luciferase reporter genes; PD-L1 aAPC/CHO-K1 Cells, which are the CHO-K1 cells expressing hPD-L1 and activate TCR's cell surface proteins. The antibody or small molecule compound is incubated with these two cells for a period of time, and the amount of the product is detected using Bio-Glo Luciferase reagent and chemiluminescence method to reflect the influence of antibody or small molecule compound on PD-1/PD-L1 interaction.
Cell medium: 36 mL Ham's F-12; 4 mL FBS
1) Resuscitate PD-L1 aAPC/CHO-K1 Cells on the first day and the cells were suspended and counted with cell recovery medium. The cells were diluted to 2.65*10^5/ml with cell medium. Seed cells at density of 6000 cells/well of 384-wells plates, incubator for 16-24 h;
2) Dilute the compound to 5 mM with DMSO. The 5 mM solution was used as the first concentration, and a 3-fold gradient dilution was performed, with a total of 9 concentration gradients, and the 10th concentration was used as the DMSO control;
3) Positive control antibody Atezolizumab was diluted to 4 μg/ml with assay buffer. 4 μg/ml was used as the first concentration, and a 2.5-fold gradient dilution was performed, with a total of 9 concentration gradients, and the 10th concentration was used as the assay buffer control;
4) Aspirate the medium from the 384-well plate. Add 10 μL/well of compound to the 384-well plate and incubate for 2 hours;
5) Resuscitate PD-1 effector cells and the cells were suspended and counted with cell recovery medium. The cells were diluted to […] with cell medium. Seed cells at density of 8000 cells/well to 384-wells plates of step 4, incubator for 17 h;
6) Add 20 μL/well of Bio-Glo luciferase reagent to the 384 reaction plate of step 5, and incubate at 25° C. for 5-30 minutes.
7) Read the RLU (relative luminescence unit) value using the Envision multi-plate reader. The experimental data were plotted using compound concentration as X value and RLU as Y value.

PD-1/PD-L1, sequence (Q9NZQ7 19-238): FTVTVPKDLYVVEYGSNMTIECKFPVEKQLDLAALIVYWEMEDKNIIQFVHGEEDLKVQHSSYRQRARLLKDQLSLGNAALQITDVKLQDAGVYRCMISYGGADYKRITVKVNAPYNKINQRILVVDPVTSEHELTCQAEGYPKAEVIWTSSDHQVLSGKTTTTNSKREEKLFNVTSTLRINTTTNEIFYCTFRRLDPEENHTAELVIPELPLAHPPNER

Question: For `Cc1c(-c2nc3cc(CN4CCCC4)c(OC(F)F)cc3o2)cccc1-c1cccc(-c2nc3cc(CN4CCC[C@H]4C(=O)O)c(OC(F)F)cc3o2)c1C` [Example 5, ((6-(difluoromethoxy)-2-(3′-(6-(difluoromethoxy)-5-(pyrrolidin-1-ylmethyl)benzo[d]oxazol-2-yl)-2,2′-dimethyl-[1,1′-biphenyl]-3-yl)benzo[d]oxazol-5-yl)methyl)-L-proline], which IC50 (PD-1/PD-L1; numeric values) is on record?
Answer: 0.4 nM

Question: And the AUC [1]?
Answer: 25700 ng·h/mL

Question: And the Cmax [1]?
Answer: 2600 ng/mL

Question: And the Tmax [1]?
Answer: 4 h

Question: And the half-life [1]?
Answer: 304 min

Question: What about the concentration at 0.5 h [2] of the same molecule?
Answer: 43.9 ng/mL

Question: And the concentration at 2 h [2]?
Answer: 55.7 ng/mL

Question: What about the concentration at 4 h [2] of the same molecule?
Answer: 61.2 ng/mL

Question: What about the EC50 [3] of the same molecule?
Answer: 317 nM

Question: Which IC50 (PD-1/PD-L1; numeric values) does the source give for `Cc1c(-c2nc3cc(CN4CC(C)(C)C4)c(OC(F)F)cc3o2)cccc1-c1cccc(-c2nc3cc(CN4CCC[C@H]4C(=O)O)c(OC(F)F)cc3o2)c1C` [Example 34, ((6-(difluoromethoxy)-2-(3′-(6-(difluoromethoxy)-5-((3,3-dimethylazetidin-1-yl)methyl)benzo[d]oxazol-2-yl)-2,2′-dimethyl-[1,1′-biphenyl]-3-yl)benzo[d]oxazol-5-yl)methyl)-L-proline] here?
Answer: 1.3 nM

Question: And the AUC [1]?
Answer: 56100 ng·h/mL

Question: And the Cmax [1]?
Answer: 4260 ng/mL

Question: And the Tmax [1]?
Answer: 4 h

Question: What about the half-life [1] of the same molecule?
Answer: 419 min

Question: What about the concentration at 0.5 h [2] of the same molecule?
Answer: 46.8 ng/mL

Question: And the concentration at 2 h [2]?
Answer: 136 ng/mL

Question: And the concentration at 4 h [2]?
Answer: 154 ng/mL

Question: Which results are given for `Cc1c(-c2nc3cc(CN4CCC[C@H]4C(=O)O)c(OC(F)F)cc3o2)cccc1-c1cccc(-c2nc3cc(CN4CC(C)(C)C4)cc(C#N)c3o2)c1C` [Example 103, ((2-(3′-(7-cyano-5-((3,3-dimethylazetidin-1-yl)methyl)benzo[d]oxazol-2-yl)-2,2′-dimethyl-[1,1′-biphenyl]-3-yl)-6-(difluoromethoxy)benzo[d]oxazol-5-yl)methyl)-L-proline]?
Answer: IC50 (PD-1/PD-L1; numeric values): 0.13 nM; AUC [1]: 96400 ng·h/mL; Cmax [1]: 5590 ng/mL; Tmax [1]: 4 h; half-life [1]: 1400 min; concentration at 0.5 h [2]: 48.9 ng/mL; concentration at 2 h [2]: 185 ng/mL; concentration at 4 h [2]: 135 ng/mL; EC50 [3]: 254 nM

Question: Which IC50 (PD-1/PD-L1; range symbols) does the source give for `Cc1c(Nc2nccc3cc(CN4CCC[C@@]4(C)C(=O)O)cnc23)cccc1-c1cccc(-c2nc3cc(CN4CCC[C@H]4C(=O)O)c(OC(F)F)cc3o2)c1C` [Example 171, (S)-1-((8-((3′-(5-(((S)-2-carboxypyrrolidin-1-yl)methyl)-6-(difluoromethoxy)benzo[d]oxazol-2-yl)-2,2′-dimethyl-[1,1′-biphenyl]-3-yl)amino)-1,7-naphthyridin-3-yl)methyl)-2-methylpyrrolidine-2-carboxylic acid] here?
Answer: 0.1 to 5 nM

Question: And the AUC [1]?
Answer: 3470 ng·h/mL

Question: And the Cmax [1]?
Answer: 965 ng/mL

Question: What about the Tmax [1] of the same molecule?
Answer: 1 h

Question: What about the half-life [1] of the same molecule?
Answer: 220 min

Question: Which IC50 (PD-1/PD-L1; numeric values) does the source give for `Cc1c(Nc2nccc3cc(CN4CCC(O)C4)cnc23)cccc1-c1cccc(-c2nc3cc(CN4CCC[C@H]4C(=O)O)c(OC(F)F)cc3o2)c1C` (stereo partly drawn) [Example 175, ((6-(difluoromethoxy)-2-(3′-((3-((3-hydroxypyrrolidin-1-yl)methyl)-1,7-naphthyridin-8-yl)amino)-2,2′-dimethyl-[1,1′-biphenyl]-3-yl)benzo[d]oxazol-5-yl)methyl)-L-proline] here?
Answer: 3.4 nM

Question: What about the AUC [1] of the same molecule?
Answer: 19900 ng·h/mL

Question: What about the Cmax [1] of the same molecule?
Answer: 1630 ng/mL

Question: What about the Tmax [1] of the same molecule?
Answer: 2 h

Question: And the half-life [1]?
Answer: 218 min

Question: Which results are given for `Cc1c(-c2nc3c(o2)CCNC3)cccc1-c1cccc(-c2nc3cc(CN4CCC[C@H]4C(=O)O)c(OC(F)F)cc3o2)c1C` [Example 190, ((6-(difluoromethoxy)-2-(2,2′-dimethyl-3′-(4,5,6,7-tetrahydrooxazolo[4,5-c]pyridin-2-yl)-[1,1′-biphenyl]-3-yl)benzo[d]oxazol-5-yl)methyl)-L-proline]?
Answer: IC50 (PD-1/PD-L1; numeric values): 0.2 nM; AUC [1]: 8570 ng·h/mL; Cmax [1]: 1280 ng/mL; Tmax [1]: 1 h; half-life [1]: 214 min

Question: For `Cc1c(-c2ccc(CN3CCCC3)c(F)c2)cccc1-c1cccc(-c2nc3cc(CN4CCC[C@H]4C(=O)O)c(OC(F)F)cc3o2)c1C` [Example 243, ((6-(difluoromethoxy)-2-(3″-fluoro-2,2′-dimethyl-4″-(pyrrolidin-1-ylmethyl)-[1,1′:3′,1″-terphenyl]-3-yl)benzo[d]oxazol-5-yl)methyl)-L-proline], which IC50 (PD-1/PD-L1; numeric values) is on record?
Answer: 2.5 nM

Question: What about the AUC [1] of the same molecule?
Answer: 67400 ng·h/mL

Question: What about the Cmax [1] of the same molecule?
Answer: 4890 ng/mL

Question: What about the Tmax [1] of the same molecule?
Answer: 1 h

Question: What about the half-life [1] of the same molecule?
Answer: 416 min

Question: With `Cc1c(-c2ccc(CN3CCCC3)c(OC(F)F)c2)cccc1-c1cccc(-c2nc3cc(CN4CCC[C@H]4C(=O)O)c(OC(F)F)cc3o2)c1C` [Example 244, ((6-(difluoromethoxy)-2-(3″-(difluoromethoxy)-2,2′-dimethyl-4″-(pyrrolidin-1-ylmethyl)-[1,1′:3′,1″-terphenyl]-3-yl)benzo[d]oxazol-5-yl)methyl)-L-proline] as the molecule, how does the IC50 (PD-1/PD-L1; numeric values) read?
Answer: 2 nM

Question: What about the AUC [1] of the same molecule?
Answer: 78100 ng·h/mL

Question: And the Cmax [1]?
Answer: 5740 ng/mL

Question: And the Tmax [1]?
Answer: 2 h

Question: And the half-life [1]?
Answer: 421 min

Question: What does the source list for `Cc1c(-c2nc3c(o2)CCN(C)C3)cccc1-c1cccc(-c2nc3cc(CN4CCC[C@H]4C(=O)O)c(OC(F)F)cc3o2)c1C` [Example 314, ((6-(difluoromethoxy)-2-(2,2′-dimethyl-3′-(5-methyl-4,5,6,7-tetrahydrooxazolo[4,5-c]pyridin-2-yl)-[1,1′-biphenyl]-3-yl)benzo[d]oxazol-5-yl)methyl)-L-proline]?
Answer: IC50 (PD-1/PD-L1; numeric values): 8 nM; AUC [1]: 29000 ng·h/mL; Cmax [1]: 6350 ng/mL; Tmax [1]: 2 h; half-life [1]: 326 min

Question: Which concentration at 0.5 h [2] does the source give for `Cc1c(-c2nc3cc(CN4CCC[C@H]4C(=O)O)ccc3o2)cccc1-c1cccc(-c2nc3cc(CN4CCCC4)c(OC(F)F)cc3o2)c1C` [Example 317, ((2-(3′-(6-(difluoromethoxy)-5-(pyrrolidin-1-ylmethyl)benzo[d]oxazol-2-yl)-2,2′-dimethyl-[1,1′-biphenyl]-3-yl)benzo[d]oxazol-5-yl)methyl)-L-proline] here?
Answer: 20.6 ng/mL

Question: What about the concentration at 2 h [2] of the same molecule?
Answer: 88.5 ng/mL

Question: And the concentration at 4 h [2]?
Answer: 44.3 ng/mL

Question: And the EC50 [3]?
Answer: 4700 nM

Question: Which EC50 [3] does the source give for `Cc1c(-c2nc3cc(CN4CCC[C@H]4C(=O)O)ccc3o2)cccc1-c1cccc(-c2nc3cc(CN4CC(C)(C)C4)cc(C#N)c3o2)c1C` [Example 318, ((2-(3′-(7-cyano-5-((3,3-dimethylazetidin-1-yl)methyl)benzo[d]oxazol-2-yl)-2,2′-dimethyl-[1,1′-biphenyl]-3-yl)benzo[d]oxazol-5-yl)methyl)-L-proline] here?
Answer: 3220 nM
